Test results as given in ChEMBL document CHEMBL1255402, “Staphylococcal cassette chromosome mec-like element in Macrococcus caseolyticus” (2010).
Converted amounts (≈) assume the structure as drawn.

Legend:
Assay type in all cases: functional
Conditions in all cases: Macrococcoides caseolyticum
[1] = tested on: Macrococcus caseolyticus; assay: Antimicrobial activity against Macrococcus caseolyticus ATCC 51835 by agar dilution method
[2] = tested on: Macrococcus caseolyticus; assay: Antimicrobial activity against Macrococcus caseolyticus ATCC 51834 by agar dilution method
[3] = tested on: Macrococcus caseolyticus; assay: Antimicrobial activity against multidrug-resistant Macrococcus caseolyticus JCSC7528 containing plasmid pMCCL2 which carries transposon containing (mecA(m)-mecR1(m)-mecI(m)-blaZ(m)) complex isolated from chicken by agar dilution method
[4] = tested on: Macrococcus caseolyticus; assay: Antimicrobial activity against Macrococcus caseolyticus ATCC 13548T by agar dilution method
[5] = tested on: Macrococcus caseolyticus; assay: Antimicrobial activity against multidrug-resistant Macrococcus caseolyticus JCSC5402 containing plasmid pMCCL2 which carries transposon containing (mecA(m)-mecR1(m)-mecI(m)-blaZ(m)) complex isolated from chicken by agar dilution method
[6] = tested on: Macrococcus caseolyticus; assay: Antimicrobial activity against Macrococcus caseolyticus ATCC 29750 by agar dilution method
[7] = tested on: Macrococcus caseolyticus; assay: Antimicrobial activity against multidrug-resistant Macrococcus caseolyticus JCSC7096 containing plasmid pMCCL2 which carries transposon containing (mecA(m)-mecR1(m)-mecI(m)-blaZ(m)) complex isolated from chicken by agar dilution method

Which results are given for `Cc1onc(-c2ccccc2)c1C(=O)N[C@@H]1C(=O)N2[C@@H]1SC(C)(C)[C@@H]2C(=O)O` [OXACILLIN]?
MIC [1]: 0.25 µg/mL (≈ 0.623 µM); MIC [2]: 0.125 µg/mL (≈ 0.311 µM); MIC [3]: 32 µg/mL (≈ 79.7 µM); MIC [4]: 0.125 µg/mL (≈ 0.311 µM); MIC [5]: 128 µg/mL (≈ 319 µM); MIC [6]: 0.125 µg/mL (≈ 0.311 µM); MIC [7]: 64 µg/mL (≈ 159 µM)
